Experimental data as given in patent publication US12173020B2, “New-type oxazolidinone compounds and preparation method therefor” (priority 2019, dated 2024).

Columns and labels:
[1] = tested on: methicillin-resistant Staphylococcus aureus (MRSA); test: agar dilution method, inhibitory effect on MRSA; type: cell-based; conditions: for MIC50: Staphylococcus aureus, read-out: Minimum inhibitory concentration (MIC50, μg/ml) MRSA
Text: (§1) In order to determine the antibacterial activity of these new oxazolidinone-based compounds, an agar dilution method was used to test the inhibitory effect on methicillin-resistant Staphylococcus aureus (MRSA) and vancomycin-resistant Enterococcus (VRE). The bacteria inhibition effect was expressed as minimum inhibitory concentration (MIC50, μg/ml) The test results are shown in the following table.

[2] = tested on: vancomycin-resistant Enterococcus (VRE); test: agar dilution method, inhibitory effect on VRE; type: cell-based; conditions: for MIC50: Enterococcus, read-out: Minimum inhibitory concentration (MIC50, μg/ml) VRE
Text: as §1

MIC50 [1] [µg/mL]	MIC50 [2] [µg/mL]	Minimum inhibitory concentration (MIC50, μg/ml) MRSA [1] [µg/mL]	Minimum inhibitory concentration (MIC50, μg/ml) VRE [2] [µg/mL]	SMILES
2	2			Cn1nnc(-c2ccc(-c3ccc(N4C[C@H](COP(=O)(O)O)OC4=O)cc3F)cn2)n1 [Tedizolid phosphate, reference compound]
0.8	0.8			CCCn1nnc(-c2ccc(-c3ccc(N4C[C@H](C(O)CC)OC4=O)cc3F)cn2)n1.O=P(O)(O)O (stereo partly drawn) [compound 107, (R)-3-(3-fluoro-4-(6-(2-propyl-2H-tetrazol-5-yl)pyridin-3-yl)phenyl)-5-(1-hydroxypropyl) oxazolidin-2-one phosphate]
0.4	0.4			O=C1O[C@H](CO)CN1c1ccc(-c2ccc(-c3nnn(C4CC4)n3)nc2)c(F)c1.O=P(O)(O)O [compound 84, (S)-3-(3-fluoro-4-(6-(2-cyclopropyl-2H-tetrazol-5-yl)pyridin-3-yl)phenyl)-5-(hydroxymethyl) oxazolidin-2-one phosphate]
1.6	1.5			CCn1nnc(-c2ccc(-c3ccc(N4C[C@@H](C(C)O)OC4=O)cc3F)cn2)n1.O=P(O)(O)O (stereo partly drawn) [compound 98, (S)-3-(3-fluoro-4-(6-(2-ethyl-2H-tetrazol-5-yl)pyridin-3-yl)phenyl)-5-(1-hydroxyethyl) oxazolidin-2-one phosphate]
0.2	0.2			CCC(O)[C@H]1CN(c2ccc(-c3ccc(-c4nnn(CC)n4)nc3)c(F)c2)C(=O)O1.O=P(O)(O)O (stereo partly drawn) [compound 99, (R)-3-(3-fluoro-4-(6-(2-ethyl-2H-tetrazol-5-yl)pyridin-3-yl)phenyl)-5-(1-hydroxypropyl) oxazolidin-2-one phosphate]
0.4	0.4			CCCn1nnc(-c2ccc(-c3ccc(N4C[C@@H](C(O)C5CC5)OC4=O)cc3F)cn2)n1.O=P(O)(O)O (stereo partly drawn) [compound 144, (S)-3-(3-fluoro-4-(6-(2-propyl-2H-tetrazol-5-yl)pyridin-3-yl)phenyl)-5-(1-hydroxy-1-cyclopropylmethyl) oxazolidin-2-one phosphate]
		0.3	0.2	C=Cn1nnc(-c2ccc(-c3ccc(N4C[C@@H](C(O)C(F)F)OC4=O)cc3F)cn2)n1.O=P(O)(O)O (stereo partly drawn) [compound 152, (S)-3-(3-fluoro-4-(6-(2-vinyl-2H-tetrazol-5-yl)pyridin-3-yl)phenyl)-5-(1-hydroxy-2-difluoroethyl) oxazolidin-2-one phosphate]
0.2	0.2			C=Cn1nnc(-c2ccc(-c3ccc(N4C[C@@H](C(O)CC)OC4=O)cc3F)cn2)n1.O=P(O)(O)O (stereo partly drawn) [compound 124, (S)-3-(3-fluoro-4-(6-(2-vinyl-2H-tetrazol-5-yl)pyridin-3-yl)phenyl)-5-(1-hydroxypropyl) oxazolidin-2-one phosphate]
		0.6	0.7	Cn1nnc(-c2ccc(-c3ccc(N4C[C@H](C(O)C(F)F)OC4=O)cc3F)cn2)n1.O=P(O)(O)O (stereo partly drawn) [compound 127, (R)-3-(3-fluoro-4-(6-(2-methyl-2H-tetrazol-5-yl)pyridin-3-yl)phenyl)-5-(1-hydroxy-2-difluoroethyl) oxazolidin-2-one phosphate]
1.5	1.1			CCn1nnc(-c2ccc(-c3ccc(N4C[C@H](C(O)C5CC5)OC4=O)cc3F)cn2)n1.O=P(O)(O)O (stereo partly drawn) [compound 137, (R)-3-(3-fluoro-4-(6-(2-ethyl-2H-tetrazol-5-yl)pyridin-3-yl)phenyl)-5-(1-hydroxy-1-cyclopropylmethyl) oxazolidin-2-one phosphate]
		0.4	0.4	CCCn1nnc(-c2ccc(-c3ccc(N4C[C@@H](C(O)C(F)F)OC4=O)cc3F)cn2)n1.O=P(O)(O)O (stereo partly drawn) [compound 140, (S)-3-(3-fluoro-4-(6-(2-propyl-2H-tetrazol-5-yl)pyridin-3-yl)phenyl)-5-(1-hydroxy-2-difluoroethyl) oxazolidin-2-one phosphate]
1.2	1.2			CCCn1nnc(-c2ccc(-c3ccc(N4C[C@@H](CO)OC4=O)cc3F)cn2)n1.O=P(O)(O)O [compound 82, (S)-3-(3-fluoro-4-(6-(2-propyl-2H-tetrazol-5-yl)pyridin-3-yl)phenyl)-5-(hydroxymethyl) oxazolidin-2-one phosphate]
		0.2	0.2	C=Cn1nnc(-c2ccc(-c3ccc(N4C[C@@H](C(OP(=O)(O)O)C(F)(F)F)OC4=O)cc3F)cn2)n1 (stereo partly drawn) [compound 120, (S)-3-(3-fluoro-4-(6-(2-vinyl-2H-tetrazol-5-yl)pyridin-3-yl)phenyl)-5-(1-hydroxy-2-trifluoroethyl) oxazolidin-2-one phosphate]
		0.8	0.6	C=Cn1nnc(-c2ccc(-c3ccc(N4C[C@H](C(OP(=O)(O)O)C(F)F)OC4=O)cc3F)cn2)n1 (stereo partly drawn) [compound 151, (R)-3-(3-fluoro-4-(6-(2-vinyl-2H-tetrazol-5-yl)pyridin-3-yl)phenyl)-5-(1-hydroxy-2-difluoroethyl) oxazolidin-2-one phosphate]
0.2	0.3			CCC(O)[C@@H]1CN(c2ccc(-c3ccc(-c4nnn(CC)n4)nc3)c(F)c2)C(=O)O1.O=P(O)(O)O (stereo partly drawn) [compound 100, (S)-3-(3-fluoro-4-(6-(2-ethyl-2H-tetrazol-5-yl)pyridin-3-yl)phenyl)-5-(1-hydroxypropyl) oxazolidin-2-one phosphate]
0.2	0.2			CCCn1nnc(-c2ccc(-c3ccc(N4C[C@H](C(O)F)OC4=O)cc3F)cn2)n1.O=P(O)(O)O (stereo partly drawn) [compound 109, (R)-3-(3-fluoro-4-(6-(2-propyl-2H-tetrazol-5-yl)pyridin-3-yl)phenyl)-5-(hydroxyfluoromethyl) oxazolidin-2-one phosphate]
0.8	0.7			O=C1O[C@@H](CO)CN1c1ccc(-c2ccc(-c3nnn(C4CC4)n3)nc2)c(F)c1.O=P(O)(O)O [compound 83, (R)-3-(3-fluoro-4-(6-(2-cyclopropyl-2H-tetrazol-5-yl)pyridin-3-yl)phenyl)-5-(hydroxymethyl) oxazolidin-2-one phosphate]
0.2	0.2			CC(O)[C@H]1CN(c2ccc(-c3ccc(-c4nnn(C5CC5)n4)nc3)c(F)c2)C(=O)O1.O=P(O)(O)O (stereo partly drawn) [compound 113, (R)-3-(3-fluoro-4-(6-(2-cyclopropyl-2H-tetrazol-5-yl)pyridin-3-yl)phenyl)-5-(1-hydroxyethyl) oxazolidin-2-one phosphate]
1.4	1.3			CCCn1nnc(-c2ccc(-c3ccc(N4C[C@H](C(C)O)OC4=O)cc3F)cn2)n1.O=P(O)(O)O (stereo partly drawn) [compound 105, (R)-3-(3-fluoro-4-(6-(2-propyl-2H-tetrazol-5-yl)pyridin-3-yl)phenyl)-5-(1-hydroxyethyl) oxazolidin-2-one phosphate]
1	1.2			CCCn1nnc(-c2ccc(-c3ccc(N4C[C@@H](C(C)O)OC4=O)cc3F)cn2)n1.O=P(O)(O)O (stereo partly drawn) [compound 106, (S)-3-(3-fluoro-4-(6-(2-propyl-2H-tetrazol-5-yl)pyridin-3-yl)phenyl)-5-(1-hydroxyethyl) oxazolidin-2-one phosphate]
		0.5	0.5	CCCn1nnc(-c2ccc(-c3ccc(N4C[C@@H](C(O)C(F)(F)F)OC4=O)cc3F)cn2)n1.O=P(O)(O)O (stereo partly drawn) [compound 104, (S)-3-(3-fluoro-4-(6-(2-propyl-2H-tetrazol-5-yl)pyridin-3-yl)phenyl)-5-(1-hydroxy-2-trifluoroethyl) oxazolidin-2-one phosphate]
0.2	0.2			CCn1nnc(-c2ccc(-c3ccc(N4C[C@@H](C(O)F)OC4=O)cc3F)cn2)n1.O=P(O)(O)O (stereo partly drawn) [compound 102, (S)-3-(3-fluoro-4-(6-(2-ethyl-2H-tetrazol-5-yl)pyridin-3-yl)phenyl)-5-(hydroxyfluoromethyl) oxazolidin-2-one phosphate]
1	0.9			C=Cn1nnc(-c2ccc(-c3ccc(N4C[C@@H](C(C)O)OC4=O)cc3F)cn2)n1.O=P(O)(O)O (stereo partly drawn) [compound 122, (S)-3-(3-fluoro-4-(6-(2-vinyl-2H-tetrazol-5-yl)pyridin-3-yl)phenyl)-5-(1-hydroxyethyl) oxazolidin-2-one phosphate]
